Tests used:
Experiment in all cases: relative viability (nuclei count vs DMSO), 5 days (fraction); higher = more cells survive
Tozasertib + Lapatinib = compound: Cc1cc(Nc2cc(N3CCN(C)CC3)nc(Sc3ccc(NC(=O)C4CC4)cc3)n2)n[nH]1 [Tozasertib] + CS(=O)(=O)CCNCc1ccc(-c2ccc3ncnc(Nc4ccc(OCc5cccc(F)c5)c(Cl)c4)c3c2)o1 [Lapatinib] (partner 2 µM)
Method in brief: (§1)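 Lung cancer cell lines were pin-tool dosed in 1536-well plates on the day after seeding, with either a lone drug or a fixed anchor-drug dose plus five library-drug doses (not always all listed) in √10 steps. Nuclei were counted on 4× images after 5 days. Relative viability is the ratio of treated-well to vehicle-well nuclei counts, with each value a median of duplicate plates.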

Tozasertib + Trametinib = compound: Cc1cc(Nc2cc(N3CCN(C)CC3)nc(Sc3ccc(NC(=O)C4CC4)cc3)n2)n[nH]1 [Tozasertib] + CC(=O)Nc1cccc(-n2c(=O)n(C3CC3)c(=O)c3c(Nc4ccc(I)cc4F)n(C)c(=O)c(C)c32)c1 [Trametinib] (partner 0.02 µM)
Method in brief: as §1

Tozasertib + Navitoclax = compound: Cc1cc(Nc2cc(N3CCN(C)CC3)nc(Sc3ccc(NC(=O)C4CC4)cc3)n2)n[nH]1 [Tozasertib] + CC1(C)CCC(c2ccc(Cl)cc2)=C(CN2CCN(c3ccc(C(=O)NS(=O)(=O)c4ccc(N[C@H](CCN5CCOCC5)CSc5ccccc5)c(S(=O)(=O)C(F)(F)F)c4)cc3)CC2)C1 [Navitoclax] (partner 0.5 µM)
Method in brief: as §1

Tozasertib + Olaparib = compound: Cc1cc(Nc2cc(N3CCN(C)CC3)nc(Sc3ccc(NC(=O)C4CC4)cc3)n2)n[nH]1 [Tozasertib] + O=C(c1cc(Cc2n[nH]c(=O)c3ccccc23)ccc1F)N1CCN(C(=O)C2CC2)CC1 [Olaparib] (partner 8 µM)
Method in brief: as §1

Tozasertib + Luminespib = compound: Cc1cc(Nc2cc(N3CCN(C)CC3)nc(Sc3ccc(NC(=O)C4CC4)cc3)n2)n[nH]1 [Tozasertib] + CCNC(=O)c1noc(-c2cc(C(C)C)c(O)cc2O)c1-c1ccc(CN2CCOCC2)cc1 [Luminespib] (partner 0.01 µM)
Method in brief: as §1

Cell Line	relative viability (Tozasertib + Lapatinib; first compound 0.004 µM)	relative viability (Tozasertib + Lapatinib; first compound 0.04 µM)	relative viability (Tozasertib + Lapatinib; first compound 0.1265 µM)	relative viability (Tozasertib + Trametinib; first compound 0.004 µM)	relative viability (Tozasertib + Trametinib; first compound 0.01265 µM)	relative viability (Tozasertib + Trametinib; first compound 0.04 µM)	relative viability (Tozasertib + Trametinib; first compound 0.1265 µM)	relative viability (Tozasertib + Navitoclax; first compound 0.004 µM)	relative viability (Tozasertib + Navitoclax; first compound 0.04 µM)	relative viability (Tozasertib + Navitoclax; first compound 0.1265 µM)	relative viability (Tozasertib + Olaparib; first compound 0.004 µM)	relative viability (Tozasertib + Olaparib; first compound 0.01265 µM)	relative viability (Tozasertib + Olaparib; first compound 0.04 µM)	relative viability (Tozasertib + Olaparib; first compound 0.1265 µM)	relative viability (Tozasertib + Luminespib; first compound 0.004 µM)	relative viability (Tozasertib + Luminespib; first compound 0.01265 µM)	relative viability (Tozasertib + Luminespib; first compound 0.04 µM)	relative viability (Tozasertib + Luminespib; first compound 0.1265 µM)	relative viability (Tozasertib + Lapatinib; first compound 0.01265 µM)	relative viability (Tozasertib + Navitoclax; first compound 0.01265 µM)
NCI-H2228	0.958	0.765	0.336	0.485	0.503	0.513	0.345	0.717	1.23	1.06	0.616	0.511	0.622	0.366	0.216	0.167	0.204	0.167		
NCI-H520	0.868	0.775	0.214	0.673	0.645	0.765	0.243	1.08	1.17	0.602	0.285	0.316		0.272	0.193	0.219	0.219	0.233	0.816	1.03
COR-L 105	0.358	0.335	0.262	0.436	0.393	0.461	0.329	0.787	0.932	0.542	0.681	0.725	0.716	0.754	0.842	0.966	0.761	0.609	0.365	0.644
SW 1573	1.03	1.21	1.05	0.521	0.652	0.569	0.179	1.1	1.15	0.816	0.479	0.452	0.456	0.208	0.25	0.239	0.139	0.228	1.23	1.06
NCI-H647	1.13	0.895	0.235	0.459	0.374	0.524	0.32	1.06	1.03	0.882	0.744	0.445	0.501	0.369	0.24	0.152	0.186	0.194	0.989	1.15
LOU-NH91	0.789	0.803	0.638	0.692	0.811	0.838	0.793	0.426	0.726	0.665	0.781	0.916	0.937	0.922		0.354	0.33	0.336	0.742	0.704
NCI-H2009	1.01	0.885	0.361	0.288	0.288	0.341	0.216	1.21	1.17	1.17	0.739	0.69	0.692	0.698	1.03	0.972	1.06	1.07	0.512	1.16
LC-2-ad	1.01	0.97	0.509	0.942	0.816	0.934	0.743	0.412	0.396	0.147	0.732	0.677	0.602	0.608	1.09	0.95	0.821	0.544	0.884	0.431
NCI-H1975	0.886	0.903	0.429	0.385	0.321	0.826	0.322	1.14	1.23	1.1	0.829	0.739	0.795	0.74	0.213	0.32	0.171	0.198	0.876	1.2
NCI-H2347	1.06	0.953	0.763	0.279	0.299	0.317	0.256	0.921	0.901	0.755	0.528	0.616	0.697	0.582	0.326		0.39	0.346	1.01	0.761
NCI-H838	1.12	1.16	0.208	0.528	0.453	0.657	0.246	1.26	1.4	1.14	0.814	0.752	0.815	0.386	0.292	0.304	0.344	0.295	0.947	1.14
H3255	0.256	0.236	0.228	0.578	0.618	0.552	0.659	0.336	0.569	0.463	0.554	0.564	0.602	0.503	0.753	0.67	1.02	0.879	0.229	0.594
LXF-289	0.956	0.823	0.722	0.69	0.625	0.685	0.571	0.964	0.807	0.588	1.08	0.942	0.792	0.644	0.573	0.51	0.664	0.399	0.846	0.889
A-427	1.09	1.04	0.824	0.783	0.68	0.818	0.509		0.995	0.755	0.769	0.645	0.734	0.47	0.983	0.857	0.97	0.481		0.979
LCLC-97TM1		1.04	0.592	0.211	0.22	0.239	0.17		0.466	0.242	0.53	0.381	0.335	0.231	0.895		0.724	0.615	0.884	0.434
HOP-62	1.06	0.856	0.943	0.356	0.401	0.401	0.372	1.06	1.08	0.99	0.699	0.436	0.458	0.288	0.953	0.876	0.912	0.976	0.999	0.946

Cell Line	relative viability (Tozasertib + Lapatinib; first compound 0.004 µM)	relative viability (Tozasertib + Lapatinib; first compound 0.04 µM)	relative viability (Tozasertib + Lapatinib; first compound 0.1265 µM)	relative viability (Tozasertib + Trametinib; first compound 0.004 µM)	relative viability (Tozasertib + Trametinib; first compound 0.01265 µM)	relative viability (Tozasertib + Trametinib; first compound 0.04 µM)	relative viability (Tozasertib + Trametinib; first compound 0.1265 µM)	relative viability (Tozasertib + Navitoclax; first compound 0.004 µM)	relative viability (Tozasertib + Navitoclax; first compound 0.04 µM)	relative viability (Tozasertib + Navitoclax; first compound 0.1265 µM)	relative viability (Tozasertib + Olaparib; first compound 0.004 µM)	relative viability (Tozasertib + Olaparib; first compound 0.01265 µM)	relative viability (Tozasertib + Olaparib; first compound 0.04 µM)	relative viability (Tozasertib + Olaparib; first compound 0.1265 µM)	relative viability (Tozasertib + Luminespib; first compound 0.004 µM)	relative viability (Tozasertib + Luminespib; first compound 0.01265 µM)	relative viability (Tozasertib + Luminespib; first compound 0.04 µM)	relative viability (Tozasertib + Luminespib; first compound 0.1265 µM)	relative viability (Tozasertib + Lapatinib; first compound 0.01265 µM)	relative viability (Tozasertib + Navitoclax; first compound 0.01265 µM)
HARA		1.02	0.246	0.63	0.565	0.608	0.283	1.17	1.15	1.07	0.821	1.2	0.983	0.349	0.659	0.681	0.496	0.484	0.695	1.07
NCI-H1993	0.804	0.829	0.772	0.444	0.396	0.5	0.54	0.901	0.927	0.651	0.998	1.05	0.897	0.722	0.755	0.631	0.796	0.618	0.82	0.884
NCI-H460	0.968	1.01	0.0247	0.132	0.129	0.113	0.0704	1.18	1.46	0.788	0.399	0.336	0.372	0.3	0.031	0.0376	0.0324	0.0295	0.842	1.03
BEN	0.73	0.696	0.577	1.03	1.02		0.961	0.0692	0.0504	0.0587		1.09	0.931	0.956	0.302	0.279	0.332	0.268	0.886	0.0723
NCI-H727	0.959	0.942	0.442	0.358	0.395	0.38	0.37	0.481	0.489	0.242	0.659	0.79	0.678	0.624	0.254	0.351	0.515	0.343		0.5
NCI-H1650	0.914	0.879	0.168	0.482	0.58	0.624	0.175		1.24	0.936	0.818	0.721	0.885	0.722	0.199	0.2	0.223	0.197	0.712	0.981
NCI-H2170	0.271	0.278	0.251	0.896	0.904	0.94	0.818	0.556	0.583	0.557	0.566	0.636	0.572	0.519	0.708	0.767	0.744	0.689	0.288	0.565
EPLC-272H	0.958	0.891		0.263	0.308	0.32	0.259	1.1	1.08		0.729			0.341	0.267	0.307	0.197	0.288		1.17
NCI-H2087	1.14	1.05	0.805	0.185	0.187	0.218	0.126	1.01	1.1	0.644	0.595	0.645	0.609	0.456	0.175	0.185	0.177	0.172	1.06	0.872
NCI-H1666	0.61	0.578	0.298	0.79	0.86	0.863	0.727	0.948	0.918	0.87	0.717	0.727	0.729	0.705	0.957	1.03	0.968	0.859	0.489	0.863
NCI-H2126	0.794		0.567	0.562	0.535	0.632	0.552	0.842	0.963	0.865	0.962	0.939	0.971	0.92	1	0.935	0.891	0.865	0.805	0.802
NCI-H322M	0.594	0.614	0.519	0.498		0.573	0.458	1.18	1.24	1.35	0.788	0.843	0.863	0.559	0.805	0.996	0.851	0.564	0.538	1.28
NCI-H1944	0.869	0.772	0.339	0.396	0.392	0.446	0.306	0.96	1.02	0.695	0.406	0.38	0.398	0.287	0.717	0.706	0.866	0.414	0.728	1.05
NCI-H1755			0.882	0.733	0.696	0.849	0.742	0.978	1.02	0.875	0.854	0.879	0.822	0.59	0.259	0.386	0.322	0.413	1.01	0.977
PC-14	0.293	0.354	0.361		0.767	0.994	0.595	1.03	1.01			0.208	0.256	0.224		0.114	0.179	0.129	0.287	
NCI-H2085	0.784	0.774	0.446	0.681	0.6	0.504	0.476	1.14	1.13	0.816	0.82	0.752	0.782	0.711	0.473	0.428	0.442	0.457	0.715	1.12

Reference: the supplement of paper PMC10307832
